Experimental data taken from ChEMBL document CHEMBL4422615, “Novel non-xanthine antagonist of the A2B adenosine receptor: From HTS hit to lead structure” (Eur J Med Chem, 2019).

Experiments:
Adenosine receptor A2b [1] = target: T1, Adenosine receptor A2b (Homo sapiens, UniProt P29275); assay: Antagonist activity at recombinant human A2B adenosine receptor expressed in CHO cells after 3 to 4 hrs by luciferase reporter gene assay; type: cell-based
T1 sequence (P29275 whole entry): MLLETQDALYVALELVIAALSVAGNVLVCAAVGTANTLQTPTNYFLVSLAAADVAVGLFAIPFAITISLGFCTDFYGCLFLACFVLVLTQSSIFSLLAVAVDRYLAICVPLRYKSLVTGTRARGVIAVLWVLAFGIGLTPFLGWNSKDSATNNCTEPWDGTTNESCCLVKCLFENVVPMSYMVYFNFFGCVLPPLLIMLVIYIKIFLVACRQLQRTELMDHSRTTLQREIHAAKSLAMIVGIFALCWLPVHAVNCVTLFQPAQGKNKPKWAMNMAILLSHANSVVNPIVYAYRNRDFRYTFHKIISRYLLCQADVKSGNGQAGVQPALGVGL

Adenosine receptor A2b [2] = target: T1, Adenosine receptor A2b; assay: Displacement of [3H]DPCPX from human A2B adenosine receptor expressed in HEK293 cell membranes after 60 mins by radioligand displacement assay
[3] = Apparent permeability from apical side to basolateral side in human Caco2 cells; type: ADME, cell-based; conditions: Caco-2
Cytochrome P450 3A4 [4] = target: T2, Cytochrome P450 3A4 (Homo sapiens, UniProt P08684); assay: Time dependent inhibition of human liver microsomes CYP3A4 using midazolam as substrate in presence of NADPH by LC-MS/MS analysis; type: ADME
Cytochrome P450 3A4 [5] = target: T2, Cytochrome P450 3A4; assay: Inhibition of CYP3A4 in human liver microsomes using midazolam as substrate preincubated for 30 mins followed by substrate addition measured after 10 mins in presence of NADPH by LC-MS/MS analysis; type: ADME
Cytochrome P450 1A2 = target: T3, Cytochrome P450 1A2 (Homo sapiens, UniProt P05177); assay: Inhibition of CYP1A2 in human liver microsomes using phenacetin as substrate after 15 mins in presence of NADPH by LC-MS/MS analysis; type: ADME
T3 sequence (P05177 whole entry): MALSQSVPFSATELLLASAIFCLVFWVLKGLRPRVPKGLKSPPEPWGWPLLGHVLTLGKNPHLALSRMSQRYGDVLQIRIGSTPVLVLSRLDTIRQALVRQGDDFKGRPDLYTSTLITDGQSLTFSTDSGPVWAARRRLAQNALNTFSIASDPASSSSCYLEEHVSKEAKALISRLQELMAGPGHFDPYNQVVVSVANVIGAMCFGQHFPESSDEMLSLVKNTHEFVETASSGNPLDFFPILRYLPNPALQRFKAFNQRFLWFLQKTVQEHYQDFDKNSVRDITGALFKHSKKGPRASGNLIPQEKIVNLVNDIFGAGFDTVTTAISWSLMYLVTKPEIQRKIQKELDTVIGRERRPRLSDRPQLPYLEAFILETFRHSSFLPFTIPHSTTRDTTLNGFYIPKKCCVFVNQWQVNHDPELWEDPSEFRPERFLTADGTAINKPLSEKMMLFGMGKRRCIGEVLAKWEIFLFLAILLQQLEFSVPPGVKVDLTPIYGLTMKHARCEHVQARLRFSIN

[6] = Efflux ratio in human Caco2 cells; type: ADME, cell-based; conditions: Caco-2
[7] = Intrinsic clearance in rat hepatocytes by MS/MS analysis; type: ADME, cell-based, Hepatocyte; conditions: for predicted hepatic clearance: read-out: CLH (converted)
[8] = target: T4, Nuclear receptor subfamily 1 group I member 2 (Homo sapiens, UniProt O75469); assay: Activation of PXR in human HepG2 cells assessed as induction of CYP3A4 expression by luciferase reporter gene assay; type: ADME, cell-based
T4 sequence (O75469 whole entry): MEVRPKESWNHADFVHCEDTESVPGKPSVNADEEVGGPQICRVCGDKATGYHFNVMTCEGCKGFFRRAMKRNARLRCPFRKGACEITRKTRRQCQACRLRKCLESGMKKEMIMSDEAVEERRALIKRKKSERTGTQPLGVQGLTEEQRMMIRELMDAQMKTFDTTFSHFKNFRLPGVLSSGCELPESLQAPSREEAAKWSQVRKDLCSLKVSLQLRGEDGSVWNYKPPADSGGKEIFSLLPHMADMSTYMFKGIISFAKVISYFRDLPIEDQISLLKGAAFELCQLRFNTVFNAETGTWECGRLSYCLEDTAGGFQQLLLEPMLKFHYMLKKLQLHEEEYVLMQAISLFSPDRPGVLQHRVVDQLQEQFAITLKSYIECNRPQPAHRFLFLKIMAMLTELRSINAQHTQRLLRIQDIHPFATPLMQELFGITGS

Cytochrome P450 2D6 = Cytochrome P450 2D6 (Homo sapiens, UniProt P10635); assay: Inhibition of CYP2D6 in human liver microsomes using dextromethorphan as substrate after 15 mins in presence of NADPH by LC-MS/MS analysis; type: ADME
PXR = target: T5, PXR (Homo sapiens, UniProt O75469); assay: Activation of PXR in human HepG2 cells assessed as induction of CYP3A4 expression at 2 x 10^-9 to 50 x 10^-6 mol/L by luciferase reporter gene assay relative to control; type: ADME, cell-based
T5 sequence (O75469 whole entry): T4 sequence (O75469 whole entry)

Cytochrome P450 2C8 = target: T6, Cytochrome P450 2C8 (Homo sapiens, UniProt P10632); assay: Inhibition of CYP2C8 in human liver microsomes using amodiaquine as substrate after 15 mins in presence of NADPH by LC-MS/MS analysis; type: ADME
T6 sequence (P10632 whole entry): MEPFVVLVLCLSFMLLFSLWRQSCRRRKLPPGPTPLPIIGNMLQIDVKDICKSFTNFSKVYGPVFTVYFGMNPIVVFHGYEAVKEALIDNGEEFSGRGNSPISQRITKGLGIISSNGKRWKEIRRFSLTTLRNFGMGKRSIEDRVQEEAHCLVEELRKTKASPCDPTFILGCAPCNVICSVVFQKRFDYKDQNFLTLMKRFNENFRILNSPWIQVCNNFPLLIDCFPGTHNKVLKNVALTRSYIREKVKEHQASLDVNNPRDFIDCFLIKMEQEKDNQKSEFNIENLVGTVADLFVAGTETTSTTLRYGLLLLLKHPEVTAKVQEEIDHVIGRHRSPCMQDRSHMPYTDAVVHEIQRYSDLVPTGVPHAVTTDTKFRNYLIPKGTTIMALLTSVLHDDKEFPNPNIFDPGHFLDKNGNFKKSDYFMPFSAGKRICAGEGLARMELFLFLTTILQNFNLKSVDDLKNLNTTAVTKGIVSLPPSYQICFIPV

[9] = Blood clearance in mouse by measuring intrinsic clearance in mouse liver microsomes by MS/MS analysis; type: ADME
[10] = Blood clearance in rat by measuring Intrinsic clearance in rat hepatocytes by MS/MS analysis; type: ADME, cell-based
[11] = Plasma clearance in mouse; type: ADME, organism-based
Cytochrome P450 2C9 = Cytochrome P450 2C9 (Homo sapiens, UniProt P11712); assay: Inhibition of CYP2C9 in human liver microsomes using diclofenac as substrate after 15 mins in presence of NADPH by LC-MS/MS analysis; type: ADME
Homo sapiens [12] = species: Homo sapiens; assay: Selectivity index, ratio of IC50 for human A2A adenosine receptor expressed in HEK293 cell membranes to IC50 for human A2B adenosine receptor expressed in HEK293 cell membranes; type: cell-based
Homo sapiens [13] = species: Homo sapiens; assay: Selectivity index, ratio of IC50 for human A1 adenosine receptor expressed in CHO cell membranes to IC50 for human A2B adenosine receptor expressed in HEK293 cell membranes; type: cell-based
Homo sapiens [14] = species: Homo sapiens; assay: Selectivity index, ratio of IC50 for human A3 adenosine receptor expressed in HEK293 cell membranes to IC50 for human A2B adenosine receptor expressed in HEK293 cell membranes; type: cell-based

T2 sequence (P08684 whole entry): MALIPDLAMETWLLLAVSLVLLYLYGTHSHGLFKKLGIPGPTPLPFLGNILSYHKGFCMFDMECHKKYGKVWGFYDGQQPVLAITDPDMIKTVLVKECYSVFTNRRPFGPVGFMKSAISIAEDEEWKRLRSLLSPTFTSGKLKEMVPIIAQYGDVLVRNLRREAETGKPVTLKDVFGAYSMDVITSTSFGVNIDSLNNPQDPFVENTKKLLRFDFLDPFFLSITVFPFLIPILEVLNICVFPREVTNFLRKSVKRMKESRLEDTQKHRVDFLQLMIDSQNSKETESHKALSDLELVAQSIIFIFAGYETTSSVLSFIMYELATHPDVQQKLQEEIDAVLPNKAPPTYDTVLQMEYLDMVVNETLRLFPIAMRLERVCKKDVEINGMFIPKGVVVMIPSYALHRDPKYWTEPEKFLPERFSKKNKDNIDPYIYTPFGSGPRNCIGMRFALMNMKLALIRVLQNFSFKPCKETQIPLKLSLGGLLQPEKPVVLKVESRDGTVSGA
Cytochrome P450 2D6, sequence (P10635 whole entry): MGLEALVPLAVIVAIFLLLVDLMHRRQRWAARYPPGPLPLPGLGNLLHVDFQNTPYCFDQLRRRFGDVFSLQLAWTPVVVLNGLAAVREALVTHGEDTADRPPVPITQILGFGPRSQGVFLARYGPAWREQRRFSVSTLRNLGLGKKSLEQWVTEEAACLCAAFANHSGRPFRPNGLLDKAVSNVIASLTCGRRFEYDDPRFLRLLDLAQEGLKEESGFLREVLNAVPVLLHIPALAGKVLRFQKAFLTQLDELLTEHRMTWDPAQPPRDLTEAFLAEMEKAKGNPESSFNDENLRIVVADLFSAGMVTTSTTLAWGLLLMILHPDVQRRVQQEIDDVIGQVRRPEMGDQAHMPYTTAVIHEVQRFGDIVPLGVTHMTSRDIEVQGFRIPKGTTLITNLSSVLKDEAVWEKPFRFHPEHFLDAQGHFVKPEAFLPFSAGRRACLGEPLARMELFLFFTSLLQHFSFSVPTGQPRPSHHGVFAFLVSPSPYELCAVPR
Cytochrome P450 2C9, sequence (P11712 whole entry): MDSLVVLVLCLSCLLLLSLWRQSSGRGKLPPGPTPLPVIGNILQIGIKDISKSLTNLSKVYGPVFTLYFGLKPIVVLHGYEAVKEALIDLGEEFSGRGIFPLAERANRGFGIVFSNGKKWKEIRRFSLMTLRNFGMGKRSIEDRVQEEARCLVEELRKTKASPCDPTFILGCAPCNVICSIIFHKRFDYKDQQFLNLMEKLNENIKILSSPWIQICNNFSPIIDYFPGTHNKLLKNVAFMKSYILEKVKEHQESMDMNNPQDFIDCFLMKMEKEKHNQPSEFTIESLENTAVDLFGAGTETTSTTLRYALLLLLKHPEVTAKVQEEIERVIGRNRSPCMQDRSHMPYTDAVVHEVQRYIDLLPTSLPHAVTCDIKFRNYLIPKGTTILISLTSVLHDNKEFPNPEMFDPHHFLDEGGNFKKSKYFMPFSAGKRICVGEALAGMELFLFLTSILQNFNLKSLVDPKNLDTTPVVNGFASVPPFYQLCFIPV

With `Cc1csc2c1c(=O)n(CCc1ccccc1)c(=O)n2CC1CCCO1` (racemic) the EC50 (Adenosine receptor A2b [1]) was > 10000 nM and the IC50 (Adenosine receptor A2b [2]) was 520 nM.

For `Cc1csc2c1c(=O)n(CCc1ccccc1)c(=O)n2CC1CCCO1` (stereo in doubt; 7), the Papp A→B [3] was 21 ×10⁻⁶ cm/s, the TDI (Cytochrome P450 3A4 [4]) was “Not Active” and the IC50 (Cytochrome P450 3A4 [5]) was 16000 nM. The IC50 (Cytochrome P450 1A2) was 6500 nM, the efflux ratio [6] was 0.69 and the CLhep predicted [7] was 66.7 mL/min/kg. For the same compound, the MEC [8] was 2 ×10⁻⁶ mol/L, the IC50 (Cytochrome P450 2D6) was > 20000 nM and the Emax (PXR) was 85%. It also gave an IC50 (Cytochrome P450 2C8) of 10000 nM, a CLhep predicted [9] of 81.7 mL/min/kg and a CLhep predicted [10] of 66.7 mL/min/kg. It also gave a clearance [11] of 43.3 mL/min/kg, an IC50 (Adenosine receptor A2b [2]) of 180 nM and an IC50 (Cytochrome P450 2C9) of 8300 nM.

For `COCCn1c(=O)n(CCc2cccnc2)c(=O)c2c(C)csc21`, the predicted hepatic clearance [7] was 61.7 mL/min/kg, the Ratio IC50 (Homo sapiens [12]) was 29 and the Ratio IC50 (Homo sapiens [13]) was 39. For the same compound, the IC50 (Adenosine receptor A2b [2]) was 280 nM and the Ratio IC50 (Homo sapiens [14]) was 23.

`Cc1csc2c1c(=O)n(CCc1ccccc1)c(=O)n2CCC(F)(F)F` showed a predicted hepatic clearance [7] of 66.7 mL/min/kg, a Ratio IC50 (Homo sapiens [12]) of 81 and a Ratio IC50 (Homo sapiens [13]) of 25. For the same compound, the IC50 (Adenosine receptor A2b [2]) was 56 nM and the Ratio IC50 (Homo sapiens [14]) was 120.

`COCCn1c(=O)[nH]c(=O)c2c(C)csc21` showed a predicted hepatic clearance [7] of 31.7 mL/min/kg, a Ratio IC50 (Homo sapiens [12]) of 1 and a Ratio IC50 (Homo sapiens [13]) of 1. For the same compound, the IC50 (Adenosine receptor A2b [2]) was > 10000 nM and the Ratio IC50 (Homo sapiens [14]) was 0.61 to 1.

In the case of `CCN(CC)C(=O)c1sc2c(c1N)c(=O)n(C)c(=O)n2C`, the predicted hepatic clearance [7] is reported as 53.3 mL/min/kg, the Ratio IC50 (Homo sapiens [12]) is reported as 0.73 and the Ratio IC50 (Homo sapiens [13]) is reported as 0.62. For the same compound, the IC50 (Adenosine receptor A2b [2]) was > 10000 nM and the Ratio IC50 (Homo sapiens [14]) was 0.61.

With `CCN(CCO)C(=O)c1sc2c(c1C)c(=O)n(CC)c(=O)n2CCC(F)(F)F` the predicted hepatic clearance [7] was 40 mL/min/kg, the Ratio IC50 (Homo sapiens [12]) was 21 and the Ratio IC50 (Homo sapiens [13]) was 13. For the same compound, the IC50 (Adenosine receptor A2b [2]) was 50 nM and the Ratio IC50 (Homo sapiens [14]) was 130.

In the case of `CCn1c(=O)c2c(C)c(C(=O)N3CC(O)C3)sc2n(CCC(F)(F)F)c1=O`, the predicted hepatic clearance [7] is reported as 6.83 to 10 mL/min/kg, the Ratio IC50 (Homo sapiens [12]) is reported as 7 and the Ratio IC50 (Homo sapiens [13]) is reported as 8. For the same compound, the IC50 (Adenosine receptor A2b [2]) was 200 nM and the Ratio IC50 (Homo sapiens [14]) was 32.

Work on `COCCn1c(=O)n(CCc2ccccc2)c(=O)c2c(C)c(C(O)c3ccccc3)sc21` (configuration not stated) yielded a predicted hepatic clearance [7] of 68.3 mL/min/kg, a Ratio IC50 (Homo sapiens [12]) of 21 and a Ratio IC50 (Homo sapiens [13]) of 1. The IC50 (Adenosine receptor A2b [2]) was 30 nM and the Ratio IC50 (Homo sapiens [14]) was 230.

In the case of `CCN(CC)C(=O)c1sc2c(c1C)c(=O)n(CCc1ccccc1)c(=O)n2CCOC`, the predicted hepatic clearance [7] is reported as 66.7 mL/min/kg, the Ratio IC50 (Homo sapiens [12]) is reported as 3 and the Ratio IC50 (Homo sapiens [13]) is reported as 23. For the same compound, the IC50 (Adenosine receptor A2b [2]) was 42 nM and the Ratio IC50 (Homo sapiens [14]) was 160.

With `COCCn1c(=O)n(CCc2ccccc2)c(=O)c2c(C)c(C(O)C3CC3)sc21` (configuration not stated) the predicted hepatic clearance [7] was 68.3 mL/min/kg, the Ratio IC50 (Homo sapiens [12]) was 11 and the Ratio IC50 (Homo sapiens [13]) was 10. The IC50 (Adenosine receptor A2b [2]) was 14 nM and the Ratio IC50 (Homo sapiens [14]) was 480.

With `Cc1[nH]cnc1Cn1c(=O)n(CCc2ccccc2)c(=O)c2c(C)csc21` the predicted hepatic clearance [7] was 56.7 mL/min/kg, the Ratio IC50 (Homo sapiens [12]) was 3 and the Ratio IC50 (Homo sapiens [13]) was 3. The IC50 (Adenosine receptor A2b [2]) was 3400 nM and the Ratio IC50 (Homo sapiens [14]) was 2.
